# US12643887B2, “Heterocyclic derivatives with cardiomyocyte proliferation activity for treatment of heart diseases” (Tongji University, priority 2019, dated 2026)
# Key:
# [1] = tested on: Neonatal Rat Ventricular Myocytes (NRVMs); experiment: Myocyte proliferation assay (EdU assay) in neonatal rat ventricular myocytes; type: cell-based; details: growth relative to blank myocyte growth without compound added; for Avg 1 uM (average myocyte proliferation): compound 1 uM; for Avg 3 uM (average myocyte proliferation): compound 3 uM; for Avg 10 uM (average myocyte proliferation): compound 10 uM
# Procedure, shortened: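 Neonatal rat ventricular myocytes, fibroblast-depleted by preplating, serum-starved 24 h (2% FBS/ITS), then given compound at 10, 3 or 1 uM in 6% FBS medium for 36 h before 12 h EdU labelling. Fixed cells stained for EdU (Click-iT), ab8295 primary antibody and DAPI; quantified by high-content confocal imaging.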
# [2] = target: T1, human CLK1 (Homo sapiens, UniProt P49759); experiment: CLK1 enzyme assay (ADP-Glo); type: biochemical; details: ADP-Glo, ATP 10 μM; read-out: CLK1 IC50
# T1 construct: Recombinant human CLK1 (129-end); GST (N); purchased SignalChem C57-11G; host or cells: Sf9 insect cells
# Procedure, shortened: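 GST-tagged CLK1 (129-end, Sf9-expressed) at 16 nM was preincubated with compound 30 min at 25 °C in 40 mM Tris pH 7.5, 20 mM MgCl2, 0.1 mg/ml BSA, 50 μM DTT. Reaction with 2 μM substrate and 10 μM ATP ran 60 min at 25 °C. ADP-Glo luminescence gave IC50 by four-parameter fit.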
# T1 sequence (P49759 129-484 limits assumed): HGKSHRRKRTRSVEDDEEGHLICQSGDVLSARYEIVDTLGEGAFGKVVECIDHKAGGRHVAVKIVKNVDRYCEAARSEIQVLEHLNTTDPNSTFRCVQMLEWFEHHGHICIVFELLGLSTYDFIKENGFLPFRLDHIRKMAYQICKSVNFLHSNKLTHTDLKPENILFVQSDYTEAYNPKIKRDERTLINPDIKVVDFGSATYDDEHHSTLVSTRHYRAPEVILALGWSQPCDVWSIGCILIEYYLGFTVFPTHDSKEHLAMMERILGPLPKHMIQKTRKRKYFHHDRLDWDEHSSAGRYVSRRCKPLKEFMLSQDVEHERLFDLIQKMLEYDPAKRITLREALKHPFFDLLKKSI
SMILES,Avg 1 uM (average myocyte proliferation) [1],Avg 3 uM (average myocyte proliferation) [1],IC50 [2] [nM],Avg 10 uM (average myocyte proliferation) [1]
"Cn1cnc2ccc(/C=C3\N=C(Nc4ccc5ncsc5c4)NC3=O)cc21 [Example 75, (Z)-2-(benzo[d]thiazol-6-ylamino)-5-((1-methyl-1H-benzo[d]imidazol-6-yl)methylene)-3,5-dihydro-4H-imidazol-4-one]",** (10%-50%),** (10%-50%),< 100,–
"O=C1NC(Nc2ccc3nccnc3c2)=N/C1=C\c1ccc2ncsc2c1 [Example 82, (Z)-5-(benzo[d]thiazol-6-ylmethylene)-2-(quinoxalin-6-ylamino)-3,5-dihydro-4H-imidazol-4-one]",** (10%-50%),** (10%-50%),< 100,–
"CN(C1=N/C(=C\c2ccc3ncsc3c2)C(=O)N1)c1ccc(N)cc1 [Example 44, (Z)-2-((4-aminophenyl)(methyl)amino)-5-(benzo[d]thiazol-6-ylmethylene)-3,5-dihydro-4H-imidazol-4-one]",*** (>50%),** (10%-50%),100 to 1000,** (10%-50%)
"O=C1NC(Nc2ccc3ncsc3c2)=N/C1=C\c1ccc2occc2c1 [Example 59, (Z)-2-(benzo[d]thiazol-6-ylamino)-5-(benzofuran-5-ylmethylene)-3,5-dihydro-4H-imidazol-4-one]",* (<10% growth relative to blank myocyte growth without compound added.),* (<10% growth relative to blank myocyte growth without compound added.),> 10000,–
"CC(C)NC1=N/C(=C\c2ccc3ncsc3c2)C(=O)N1C [Example 45, (Z)-5-(benzo[d]thiazol-6-ylmethylene)-2-(isopropylamino)-3-methyl-3,5-dihydro-4H-imidazol-4-one]",** (10%-50%),** (10%-50%),< 100,** (10%-50%)
"NC1=N/C(=C\c2ccc3ncsc3c2)C(=O)N1 [Example 103, (Z)-2-amino-5-(benzo[d]thiazol-6-ylmethylene)-3,5-dihydro-4H-imidazol-4-one]",** (10%-50%),** (10%-50%),< 100,–
"CN(C1=N/C(=C\c2ccc3[nH]cnc3c2)C(=O)N1)c1ccccc1 [Example 30, (Z)-5-((1H-benzo[d]imidazol-5-yl)methylene)-2-(methyl(phenyl)amino)-3,5-dihydro-4H-imidazol-4-one]",* (<10% growth relative to blank myocyte growth without compound added.),* (<10% growth relative to blank myocyte growth without compound added.),100 to 1000,–
"NC(=O)CCN(C1=N/C(=C\c2ccc3c(c2)OCO3)C(=O)N1)c1ccccc1 [Example 36, (Z)-3-((4-(benzo[d][1,3]dioxol-5-ylmethylene)-5-oxo-4,5-dihydro-1H-imidazol-2-yl)(phenyl)amino)propanamide]",* (<10% growth relative to blank myocyte growth without compound added.),** (10%-50%),100 to 1000,–
"CN(C1=N/C(=C\c2ccc3ncsc3c2)C(=O)N1)c1ccc(Cl)cc1 [Example 24, (Z)-5-(benzo[d]thiazol-6-ylmethylene)-2-((4-chlorophenyl)(methyl)amino)-3,5-dihydro-4H-imidazol-4-one]",* (<10% growth relative to blank myocyte growth without compound added.),* (<10% growth relative to blank myocyte growth without compound added.),100 to 1000,* (<10% growth relative to blank myocyte growth without compound added.)
"O=C1NC(Nc2ccc3nc(Nc4ccccc4)sc3c2)=N/C1=C\c1ccc2ncsc2c1 [Example 104, (Z)-5-(benzo[d]thiazol-6-ylmethylene)-2-((2-(phenylamino)benzo[d]thiazol-6-yl)amino)-3,5-dihydro-4H-imidazol-4-one]",* (<10% growth relative to blank myocyte growth without compound added.),** (10%-50%),< 100,–
"O=C1NC(Nc2ccc3ncsc3c2)=N/C1=C\c1ccc2[nH]ccc2c1 [Example 58, (Z)-5-((1H-indol-5-yl)methylene)-2-(benzo[d]thiazol-6-ylamino)-3,5-dihydro-4H-imidazol-4-one]",* (<10% growth relative to blank myocyte growth without compound added.),* (<10% growth relative to blank myocyte growth without compound added.),> 10000,–
"O=C1NC(Nc2ccc3ncsc3c2)=N/C1=C\c1ccc2cccnc2c1 [Example 60, (Z)-2-(benzo[d]thiazol-6-ylamino)-5-(quinolin-7-ylmethylene)-3,5-dihydro-4H-imidazol-4-one]",* (<10% growth relative to blank myocyte growth without compound added.),* (<10% growth relative to blank myocyte growth without compound added.),> 10000,–
"Cn1cnc2cc(/C=C3\N=C(Nc4ccccc4)NC3=O)ccc21 [Example 71, (Z)-5-((1-methyl-1H-benzo[d]imidazol-5-yl)methylene)-2-(phenylamino)-3,5-dihydro-4H-imidazol-4-one]",* (<10% growth relative to blank myocyte growth without compound added.),* (<10% growth relative to blank myocyte growth without compound added.),> 10000,–
"O=C1NC(NC23CC4CC(CC(C4)C2)C3)=N/C1=C\c1ccc2scnc2c1 [Example 50, (Z)-2-(adamantan-1-ylamino)-5-(benzo[d]thiazol-5-ylmethylene)-3,5-dihydro-4H-imidazol-4-one]",* (<10% growth relative to blank myocyte growth without compound added.),* (<10% growth relative to blank myocyte growth without compound added.),> 10000,–
"O=C1NC(Nc2ccccc2)=N/C1=C\c1ccc2cn[nH]c2c1 [Example 54, (Z)-5-((1H-indazol-6-yl)methylene)-2-(phenylamino)-3,5-dihydro-4H-imidazol-4-one]",* (<10% growth relative to blank myocyte growth without compound added.),* (<10% growth relative to blank myocyte growth without compound added.),> 10000,–
